One experiment concerns the target T1, Aβ42 (Homo sapiens, UniProt P05067).
T1 construct: Remove Aβ42 film(s) from −80° C
Format: biochemical. The conditions noted are these: 7500.0. As to the method: Peptides were co-incubated with 75 μM Aβ in PBS aggregation buffer and monitored for β-sheet formation via ThT fluorescence over time. In each case, AB alone (ie Aβ aggregating in PBS without any inhibitor) was run as the standard control and used for calculating % inhibition by the following equation:
Importantly, each value had its corresponding ‘blank’ subtracted from the raw data, ie: End Inhibitor value=Raw value at the end of the assay-value for peptide alone in PBS at the given concentration.
The ‘blank’ values never exceeded more than 2× starting Aβ value to ensure that overcorrection is not the source of efficacy in data processing-end Aβ value was on average 20× starting Aβ value. Peptide concentration was varied while Aβ concentration remained fixed to investigate the potency of the designs at equal- and sub-stoichiometric ratios of AP: Aβ (ratios investigated include 1:1, 1:10, and 1:100). […]
Inhibition of Abeta aggregation was assessed in our standard ThT assay and the results can be compared to those in the table comparing different peptides in their monomeric and dimeric forms with 10-fold excess of Abeta.
Aβ aggregation and fibril formation, as well as inhibition experiments with α-sheet peptides, were monitored via ThT fluorescence according to the procedure, as follows. […]

The subject of experiment [1] is curli amyloid fibril formation in live E. coli. Kind of experiment: TEM of curli amyloid fibril formation in E. coli biofilms. The conditions noted are these: equimolar concentrations. Format: cell-based. The method, then: FIG. 3(a-c).TEM images reveal extensive curli amyloid fibril formation in (a) peptide-free biofilms and biofilms grown in the presence of (c) P1, but not those grown in the presence of (b) AP195 dimer (Scale bars=2 μm). P1 and AP195 were added at equimolar concentrations. AP195 is an α-sheet peptide and P1 is a random coil control.
The random coil peptide control (P1) had no effect.

Experiment [2] concerns E. coli UTI89 WT biofilms. Kind of experiment: Biofilm ThT assay in live E. coli UTI89 WT. The class given is cell-based. The conditions noted are these: 48 h growth, dimers 1-8 μM, monomers double. As to the method: FIG. 2. Protocol to test inhibition of biofilm amyloid formation in live E. coli. Amyloid formation is assessed through a ThT assay like that used with Abeta and IAPP above. In addition, inhibition of amyloid disrupts the biofilm, leading to an increase in planktonic free-floating bacteria cells, which are then susceptible to antibiotics.
(§1) FIG. 4(a-b). Inhibition of amyloid formation by alpha-sheet designs in live E. coli clinical isolates. […] The concentrations are provided for the dimers, but the P1 and AP5 monomers were double that concentration to provide the same number of monomer units for comparison of the designs (ex. where it says 5 μM applied AP5, it was actually 10 μM). cNFU=corrected, normalized fluorescence units, where normalized signals were corrected by the nonspecific ThT fluorescence of E. coli UTI89 ΔcsgA biofilms. (b) Synthetic α-sheet peptides AP193 and AP195 decreased the ThT fluorescence of E. coli GERB319 biofilms, a clinical UTI isolate with resistance to gentamicin and ciprofloxacin (the dimeric peptides were added at 8 μM and AP5 and P1 were 16 μM to provide the same monomer equivalents). The unstructured control peptide P1 had no effect when applied at the same concentration. […]
Overnight cultures were grown in LB medium for ˜18 h. […] Peptide stocks were dissolved in water and concentrations were determined by Nanodrop™ (Thermo Scientific; Waltham, MA). […]

Another experiment relates to E. coli GERB319 biofilms. Kind of experiment: Biofilm ThT assay in clinical isolate E. coli GERB319. The class given is cell-based. The conditions noted are these: dimeric peptides 8 μM, AP5 and P1 16 μM. As to the method:
as §1
Overnight cultures were grown in LB medium for ˜18 h. […] Peptide stocks were dissolved in water and concentrations were determined by Nanodrop™ (Thermo Scientific; Waltham, MA). […] Planktonic cells were spun down and resuspended in PBS, and the optical density of both planktonic and rinse samples was determined at 600 nm to estimate cell densities. […] 100 μL of each biofilm suspension was then transferred to a black-walled, clear-bottom 96 well plate for measurements in a plate reader (PerkinElmer; Waltham, MA). […]

Bridge positions count the residues as written; N and C are the ends. Square brackets hold non-standard residues; d marks the D form. Peptide text beside a SMILES is read from it. I, II: the chains in the order shown.

T1 sequence (P05067 672-713 limits assumed): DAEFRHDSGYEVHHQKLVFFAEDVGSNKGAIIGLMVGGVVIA

Consider `CSCC[C@H](NC(=O)[C@@H](CCC(=O)O)NC(=O)CNC(=O)[C@@H](CCCNC(=N)N)NC(C)=O)C(=O)N[C@H](CC(N)=O)C(=O)N[C@@H](CC(C)C)C(=O)N[C@H](CO)C(=O)N[C@@H](Cc1c[nH]c2ccccc12)C(=O)N[C@H](CCSC)C(=O)N[C@H](CC(N)=O)C(=O)N[C@H](CCC(=O)O)C(=O)N[C@H](Cc1ccc(O)cc1)C(=O)N[C@H](Cc1ccc(O)cc1)C(=O)NCC(=O)N[C@H](Cc1c[nH]c2ccccc12)C(=O)N[C@H](C(=O)N[C@H](CCSC)C(=O)N[C@@H](CC(N)=O)C(=O)N[C@H](CCSC)C(=O)N[C@@H](CCCCN)C(=O)N[C@H](CS)C(=O)NCC(=O)N[C@H](CCCNC(=N)N)C(N)=O)[C@@H](C)O` [AP527m, Ac-rGeMnLsWmneyyGwTmNmKcGr-NH2] (Ac-[dR]G[dE]M[dN]L[dS]W[dM][dN][dE][dY][dY]G[dW]T[dM]N[dM]K[dC]G[dR]-NH2), for which the “% Inhibition 1:10 (AP peptide:Abeta42)” value at Aβ42 is 14%.

As for “I: Ac-[dR]G[dE]M[dN]L[dS]W[dM][dN][dE][dY][dY]G[dW]T[dM]N[dM]K[dC]G[dR]-NH2 / II: Ac-[dR]G[dE]M[dN]L[dS]W[dM][dN][dE][dY][dY]G[dW]T[dM]N[dM]K[dC]G[dR]-NH2 (disulfide I:21-II:21) [AP527d, Ac-rGeMnLsWmneyyGwTmNmKcGr-NH2]”, the “% Inhibition 1:10 (AP peptide:Abeta42)” value on Aβ42 was 96%. For the compound “I: Ac-RGN[dW]N[dE]S[dK]MNEYSGW[dM]L[dM]C[dT]MGR-NH2 / II: Ac-RGN[dW]N[dE]S[dK]MNEYSGW[dM]L[dM]C[dT]MGR-NH2 (disulfide I:19-II:19) [AP500d, Ac-RGNwNeSkMNEYSGWmLmCtMGR-NH2]”, the “curli amyloid fibril formation (TEM)” value in experiment [1] is “inhibition of fibril formation”. Also, the “amyloid content in biofilms, ThT fluorescence (cNFU)” value in experiment [2] is reported as “dose-dependent reduction”. In the experiment with E. coli GERB319 biofilms, the “ThT fluorescence of biofilms” value is “significant decrease”.

For the origin of these results see patent US20250179125A1, “Alpha-sheet Polypeptides and Their Use” (University of Washington, priority 2021, published 2025).
